Entries after “also recorded” stand apart in the source; their conditions may differ.
Tests used:
[1] = molecular target: T1, TNFα convertase from HL60 cells (Homo sapiens, UniProt P24158); assay: 35S-labelled 26 kD TNFα in vitro transcription/translation autoradiographic convertase assay with HL60 convertase (P-30 fraction); assay type: biochemical; conditions: 30° C., 1 hour, SDS-PAGE autoradiography
T1 construct: solution containing convertase activity partially purified from uninduced HL60 cells; endogenous in cells
T1 sequence (P24158 28-248): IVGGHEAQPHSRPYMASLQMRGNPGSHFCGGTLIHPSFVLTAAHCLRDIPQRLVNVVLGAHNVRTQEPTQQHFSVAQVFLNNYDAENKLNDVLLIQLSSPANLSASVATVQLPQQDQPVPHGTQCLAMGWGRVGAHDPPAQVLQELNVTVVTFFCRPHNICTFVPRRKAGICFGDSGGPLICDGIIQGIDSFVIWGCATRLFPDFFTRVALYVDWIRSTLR
Excerpt: A preferred assay procedure consists of in vitro transcription/translation to produce the 26 kD molecule, followed by treatment with convertase in the presence or absence of compounds being tested for convertase inhibitory activity. The procedure entails in vitro transcription/translation of the TNFα cDNA present in the pGEM vector. Thus, the sequence was removed from pB11 by Pst I digestion and was inserted into the Pst I site of pGEM-3 (obtainable from Promega Biotec, Madison Wis.). The resulting plasmid, termed pGEM-TNFα14, was amplified in E. coli using established techniques, and plasmid DNA was prepared according to the procedure of Birnboim and Doly, described above. Plasmid DNA was transcribed in vitro by linearizing it with Hind III, and the linearized plasmid templates were used to prepare capped transcripts with T7 RNA polymerase and an in vitro transcription kit supplied by Promega Biotec (Madison, Wis.).
The mRNA produced above was translated in vitro in the presence of ^35S-cysteine to produce ^35S-cysteine-labelled 26 kD TNFα. A rabbit reticulocyte lysate translation kit was used, also supplied by Promega Biotec, and the conditions recommended by the manufacturer were followed.
^35S-cysteine-labelled 26 kD TNFα was used to assay for convertase inhibitors as follows. 25 μl of in vitro translated material was combined with 250 μl of solution containing convertase activity partially purified from uninduced HL60 cells, plus compounds to be assayed for inhibitory activity. The convertase was produced by harvesting 2×10^9 HL60 cells, disrupting the cells, and isolating S-1 (supernatant fluid from a 100,000 ×g centrifugation) and P-30 (pellet from a 30,000×g centrifugation) fractions totalling 18 and 6 ml, respectively. 250 μl of the P-30 fraction was used, although the S-1 fraction may also be used. The assay was carried out at 30° C. for 1 hour, essentially as described above. Next, the reaction mixture was immunoprecipitated with rabbit anti-human TNFα polyclonal antisera (produced from TNFα made in E. coli) and protein A Sepharose, pelleted and washed. […]

[2] = molecular target: T2, TNFα convertase/PR-3 (purified native PR-3) (Homo sapiens, UniProt P24158); assay: Colorimetric Boc-Ala-ONp assay for convertase inhibition; assay type: biochemical; conditions: for inhibition of TNFα convertase/PR-3 activity: 35 μM
T2 construct: from tissue; host or cells: human blood neutrophils
T2 sequence (P24158 28-248): T1 sequence (P24158 28-248)
Method: TNFα convertase inhibition can also be measured by a colorimetric assay. In this type of assay, the actual activity of TNFα convertase is measured directly using a colorimetric TNFα convertase substrate. […] One such substrate is Boc-Ala-ONp (Bachem Bioscience, Inc., Philadelphia, Pa.). Other potentially useful substrates can be predicted from the structure of TNFα convertase and other serine proteases. Although the example herein uses purified native PR-3 as the TNFα convertase, it is contemplated that recombinant PR-3 or other TNFα convertases can be used in this assay as well.
Peptide diphenyl phosphonate inhibitors were synthesized and stored as lyophilized solids as described in Oleksyszyn and Powers, Biochem 30:485-493 (1991). Inhibitor solutions (10 mg/ml) were prepared in 100% dimethyl sulfoxide (DMSO) and diluted into aqueous buffers upon initiation of the experiments. 3,4, dichloro-isocoumarin was purchased from CalBiochem. Purified PR-3 (10 μl, 0.1 mg/ml) was mixed with varying concentrations of protease inhibitor ([…]) in 20 mM sodium phosphate buffer, pH 7.0, containing 0.1 M sodium chloride. Aliquots (40 μl) were removed at selected times and diluted 1/10 into a colorimetric assay for convertase, containing 0.5-1 mM Boc-Ala-ONp (prepared fresh from a 50 mM stock in 100% methanol) in 0.02 M sodium phosphate buffer, pH 7.0, 0.1 M sodium chloride. The increase in absorbance was monitored at 347 nm on a Hewlett Packard 8450A spectrophotometer, and using an extinction coefficient of 5.5×10^3 M^−1cm^−1 to calculate units of enzyme activity.
The peptide diphenyl phosphonates were tested in the colorimetric assay described in Example 3, for inhibition of TNFα convertase/PR-3 activity.

recombinant PR-3 (rPR-3) = molecular target: T3, recombinant PR-3 (rPR-3) (Homo sapiens, UniProt P24158); assay: Residual recombinant PR-3 activity with Boc-Ala-ONp substrate; assay type: biochemical
T3 construct: made in house; host or cells: Sf9 insect cells (baculovirus, pAcC13preproPR-3)
T3 sequence (P24158 28-248 limits assumed): T1 sequence (P24158 28-248)
Method: Cytoplasmic anti-neutrophil cytoplasmic antibodies (c-ANCA) are human polyclonal antibodies derived from patients with Wegener's granulomatosis. […] Protein-A-purified human c-ANCA (supplied by Dr. Erik Hack, The Netherlands) was mixed with purified recombinant PR-3 (SEQ ID NO: 23) prepared as described above at various molar ratios of antibody to enzyme, and after incubation for 1 hour at 37° C., residual enzyme activity was measured using the Boc-Ala-ONp substrate as described in Example 4.
The two peptide diphosphonate inhibitors, Boc-Ala-Pro-Val-(OPh)2 and Boc-Val-Pro-Val-(OPh)2, were mixed at various concentrations with 125 ng of rPR-3 (prepared as described above) and incubated for 1 hour at 25° C. The residual enzyme activity was measured using the Boc-Ala-ONp substrate and compared to the same amount of enzyme incubated in the absence of inhibitor. Under these conditions, the Boc-Ala-Pro-Val-(OPh)2 inhibited PR-3 with an IC50 of about 10 μM and the Boc-Val-Pro-Val-(OPh)2 inhibited PR-3 with an IC50 of about 0.4 μM. […] Thus, recombinant PR-3 may be employed in detection of useful inhibitors of native PR-3.

PR-3 = molecular target: T4, PR-3 (Homo sapiens, UniProt P24158); assay: Inhibition of PR-3, summary statement of the assays shown below; assay type: biochemical
T4 sequence (P24158 28-248): T1 sequence (P24158 28-248)
Excerpt: As shown below, PR-3 is inhibited by peptide diphenyl phosphonate inhibitors, elastinal, and dichloro-isocoumarin (DCI). The peptide diphenyl phosphonate inhibitors include Boc-Val-Pro-Val-p(OPh)2 and Boc-Ala-Pro-Val-p(OPh)2 (BOC-butoxycarbonyl). […] “Boc” means N-tert-butoxycarbonyl and “p(OPh)2” represents the diphenyl phosphonate moiety, wherein the formula—COOH group is replaced with P(=0)-(O-phenyl)2. See Oleksyszyn et al., Biochem 30:485 (1991). It will be appreciated that other peptide diphenyl phosphonate molecules may inhibit PR-3. Potential inhibitors may be constructed using the procedures shown in Oleksyszyn et al., supra, using small aliphatic peptides, for an example. Once the potential inhibitors are made, they may be tested in the assays shown below.

[3] = molecular target: T5, purified native PR-3 from human neutrophils (Homo sapiens, UniProt P24158); assay: 35S-labelled 26 kD TNFα autoradiographic convertase assay with purified native PR-3; assay type: biochemical; conditions: 45 μM; PR-3 0.3 μg/ml preincubated 30 minutes
T5 construct: from tissue; host or cells: human blood neutrophils
T5 sequence (P24158 28-248): T1 sequence (P24158 28-248)
Method: ^35S-cysteine-labelled 26 kD TNFα was used to assay for convertase inhibitors as follows. 25 μl of in vitro translated material was combined with 250 μl of solution containing convertase activity partially purified from uninduced HL60 cells, plus compounds to be assayed for inhibitory activity. The convertase was produced by harvesting 2×10^9 HL60 cells, disrupting the cells, and isolating S-1 (supernatant fluid from a 100,000 ×g centrifugation) and P-30 (pellet from a 30,000×g centrifugation) fractions totalling 18 and 6 ml, respectively. 250 μl of the P-30 fraction was used, although the S-1 fraction may also be used. The assay was carried out at 30° C. for 1 hour, essentially as described above. Next, the reaction mixture was immunoprecipitated with rabbit anti-human TNFα polyclonal antisera (produced from TNFα made in E. coli) and protein A Sepharose, pelleted and washed. The bound protein was eluted and electrophoresed using SDS-PAGE. The gel was fixed in 40% methanol, 10% acetic acid, soaked in Enlightening (Dupont), dried, and exposed to X-ray film which was subsequently developed.
The above assay was also used with purified native PR-3 from human neutrophils to test a variety of proteinase inhibitors for their ability to inhibit TNFα convertase activity, as shown in FIG. 5. Purified PR-3 (0.3 μg/ml) was preincubated for 30 minutes with the following inhibitors prior to addition of ^35S-labelled 26 kD-TNFα, and then assayed as described above: DCI (45 μM), α-2-macroglobulin (1 mg/ml), PMSF (20 μM), leupeptin (2 μg/ml), EDTA (10 mM), or pepstatin (2 μg/ml).

[4] = system: TNFα release from mouse macrophages; assay: LPS-induced TNFα secretion by adherent peritoneal macrophages (ELISA); assay type: cell-based
Method: (§1) Release of TNFα by macrophages after stimulation by LPS is a major source of TNFα in the host. In these studies peritoneal macrophages were purified by adhesion, cultured in 24 well plates, and LPS was added to induce secretion of TNFα. […] DCI was then added in dimethyl sulfoxide vehicle to cultures. The control cultures had DMSO alone added in equivalent concentrations. Supernatants were collected and assayed for TNFα and IL-6. […] [table]

[5] = system: IL-6 release from mouse macrophages; assay: LPS-induced IL-6 secretion by adherent peritoneal macrophages (B9 bioassay); assay type: cell-based
Method: as §1

[6] = Stability and formulation studies in corn oil; assay type: physicochemical; conditions: dissolved in corn oil
Excerpt: (§2) This represented a maximal tolerated dose of DCI that could be administered.

mice = assay: Toxicity of DCI/oil injected into mice; assay type: in vivo, mouse; conditions: injection of DCI/oil into mice
Excerpt: as §2

serum TNFα = assay: Serum TNFα in mice injected with a lethal dose of LPS; assay type: in vivo, mouse; conditions: DCI injected 1 hour before lethal LPS dose; ELISA and L929 lysis
Excerpt: (§3) The kinetics of induction TNFα and IL-6 in mice injected with a lethal dose of LPS was studied. […] Also, there was a delayed increase in TNFα measured up to the 6-hour time point. This was true for both immunoreactive mouse TNFα measured by ELISA and bioactive YNFα measured by lysis of L929 cells. IL-6 levels were not reduced by this therapy.

serum IL-6 = assay: Serum IL-6 in mice injected with a lethal dose of LPS; assay type: in vivo, mouse; conditions: DCI injected 1 hour before lethal LPS dose
Excerpt: as §3

mice injected with LPS = assay: Survival of mice injected with a lethal dose of LPS; assay type: in vivo, mouse
Method: The effect of DCI on survival of mice injected with a dose of LPS that results in 100% death of animals by 24 hours was also investigated.

[7] = LPS-stimulated peritoneal macrophages, versus DMSO vehicle

With `CO[C@@H]1C(=O)N2C(C(=O)N3CCOCC3)=C(COC(C)=O)CS(=O)(=O)[C@H]12` (relative stereo) [(1-((3-((acetyloxyl)-7-methoxy-8-oxy-8-oxo-5-thio-1-azabicyclo [4.2.0]oct-2-en-2-yl)carbonyl)morpholine, S, S-dioxide, (6R-cis)] the “inhibition of convertase activity (conversion of 26 kD TNFα)” value ([1]; 1 mM) was “inhibits convertase activity”.

With `CC(C)C(NC(=O)[C@@H]1CCCN1C(=O)[C@H](C)NC(=O)OC(C)(C)C)P(=O)(Oc1ccccc1)Oc1ccccc1` (stereo partly drawn) [APV, Boc-Ala-Pro-Val-p(OPh)2] the “inhibition of TNFα convertase/PR-3 activity” value [2] was “demonstrated inhibitory activity”, the IC50 (recombinant PR-3 (rPR-3)) was roughly 10 µM and the “inhibition of PR-3” value (PR-3) was “inhibited”.

With `CC(NC(=O)OC(C)(C)C)C(=O)NC(CCC(N)=O)C(=O)NC(C)P(=O)(Oc1ccccc1)Oc1ccccc1` (stereo not drawn) [AQA, Boc-Ala-Gln-Ala-p(OPh)2] the “inhibition of TNFα convertase/PR-3 activity” value [2] was “marginal, if any inhibition” and the “inhibition of PR-3” value (PR-3) was “much less inhibitory activity”.

In the case of `O=c1oc(Cl)c(Cl)c2ccccc12` [DCI, 3,4 dichloroisocoumarin], the “inhibition of the convertase (conversion of 26 kD TNFα)” value ([1]; 100 pg/ml) is reported as “inhibit the convertase”, the “inhibition of TNFα convertase activity of purified PR-3” value [3] is reported as “significant inhibitory activity” and the inhibition at 95 µM ([2]; 95 μM) is reported as 100%. For the same molecule, the TNFα ([4]; DCI 20 μg/ml, macrophages 10^6/ml with LPS, 3 hours, ELISA) was 0.05 ng/mL, the TNFα secretion [4, 7] was “markedly suppressed” and the IL-6 ([5]; DCI 20 μg/ml, macrophages 10^6/ml with LPS, 3 hours, B9 bioassay) was 189 pg/mL. For the same molecule, the IL-6 response [5, 7] was “not significantly altered”, the stability [6] was “stable and retained serine protease inhibitor activity” and the “LD 50%” value (mice) was 1 mg/mL. For the same molecule, the “serum TNFα” value (serum TNFα) was “marked inhibition; also recorded: decreased”, the IL-6 levels (serum IL-6) was “not reduced” and the “dose response of survival effect” value (mice injected with LPS; 0.75 mg of DCI compared with 0.5 mg) was “more effective than 0.5 mg”. The survival (mice injected with LPS; prophylactic DCI, LPS dose giving 100% death by 24 hours) was “prolong survival” and the “inhibition of PR-3” value (PR-3) was “inhibited”.

For `CC(C)CC(NC(=O)OC(C)(C)C)C(=O)NC(C)C(=O)NC(CCC(N)=O)C(=O)NC(C)P(=O)(Oc1ccccc1)Oc1ccccc1` (stereo not drawn) [LAQA, Boc-Leu-Ala-Gln-Ala-p(OPh)2], the “inhibition of TNFα convertase/PR-3 activity” value [2] was “marginal, if any inhibition” and the “inhibition of PR-3” value (PR-3) was “much less inhibitory activity”.
